Reference: ChEMBL document CHEMBL3779785, “1,3,4-Oxadiazole derivatives as potential antitumor agents: discovery, optimization and biological activity valuation” (Medchemcomm, 2016)

Tests used:
[1] = Cytotoxicity against human macrophages assessed as cell growth inhibition; format: cell-based, Macrophage
[2] = tested on: HeLa; experiment: Antiproliferative activity against human HeLa cells after 24 hrs by MTT assay
[3] = tested on: HepG2; experiment: Antiproliferative activity against human HepG2 cells after 24 hrs by MTT assay; conditions: HepG2, 24 h
[4] = tested on: MCF7; experiment: Antiproliferative activity against human MCF7 cells after 24 hrs by MTT assay; conditions: MCF7, 24 h
[5] = tested on: HeLa; experiment: Induction of apoptosis in human HeLa cells assessed as late apoptotic cells at 2 uM after 24 hrs by Annexin V FITC/propidium iodide staining based flow cytometric analysis (reference value: 10.17 %); format: functional
[6] = tested on: HeLa; experiment: Induction of apoptosis in human HeLa cells assessed as early apoptotic cells at 2 uM after 24 hrs by Annexin V FITC/propidium iodide staining based flow cytometric analysis (reference value: 8.45 %); format: functional
[7] = tested on: HeLa; experiment: Induction of apoptosis in human HeLa cells assessed as early apoptotic cells at 10 uM after 24 hrs by Annexin V FITC/propidium iodide staining based flow cytometric analysis (reference value: 8.45 %); format: functional
[8] = tested on: HeLa; experiment: Induction of apoptosis in human HeLa cells assessed as late apoptotic cells at 10 uM after 24 hrs by Annexin V FITC/propidium iodide staining based flow cytometric analysis (reference value: 10.17 %); format: functional
[9] = tested on: HeLa; experiment: Induction of apoptosis in human HeLa cells assessed as early apoptotic cells at 50 uM after 24 hrs by Annexin V FITC/propidium iodide staining based flow cytometric analysis (reference value: 8.45 %); format: functional
[10] = tested on: HeLa; experiment: Induction of apoptosis in human HeLa cells assessed as late apoptotic cells at 50 uM after 24 hrs by Annexin V FITC/propidium iodide staining based flow cytometric analysis (reference value: 10.17 %); format: functional
[11] = tested on: HeLa; experiment: Induction of apoptosis in human HeLa cells assessed as early apoptotic cells after 24 hrs by Annexin V FITC/propidium iodide staining based flow cytometric analysis; format: functional, cell-based
[12] = tested on: HeLa; experiment: Induction of apoptosis in human HeLa cells assessed as late apoptotic cells after 24 hrs by Annexin V FITC/propidium iodide staining based flow cytometric analysis; format: functional, cell-based

SMILES | IC50 [2] | IC50 [3] | IC50 [4] | CC50 [1] | Activity [5] | Activity [6] | Activity [7] | Activity [8] | Activity [9] | Activity [10] | Activity [11] | Activity [12]
COc1ccccc1-c1nnc(Cn2nnc3ccccc32)o1 | 216 µM | 452 µM | 331 µM | > 100 µM |  |  |  |  |  |  |  | 
Brc1cccc(-c2nnc(Cn3nnc4ccccc43)o2)c1 | 301 µM | 488 µM | 382 µM | > 100 µM |  |  |  |  |  |  |  | 
Fc1cccc(-c2nnc(Cn3nnc4ccccc43)o2)c1 | 332 µM | 451 µM | 398 µM | > 100 µM |  |  |  |  |  |  |  | 
COc1cccc(Cc2nnc(Cn3nnc4ccccc43)o2)c1 | 123 µM | 350 µM | 241 µM | > 100 µM |  |  |  |  |  |  |  | 
Brc1cccc(Cc2nnc(Cn3nnc4ccccc43)o2)c1 | 182 µM | 398 µM | 269 µM | > 100 µM |  |  |  |  |  |  |  | 
COc1ccccc1Cc1nnc(Cn2nnc3ccccc32)o1 | 11 µM | 334 µM | 15 µM | > 100 µM | 19.6% | 9.86% | 23.57% | 20.79% | 36.18% | 35.86% | Dose-dependent effect | Dose-dependent effect
COc1cccc(-c2nnc(Cn3nnc4ccccc43)o2)c1 | 243 µM | 476 µM | 370 µM | > 100 µM |  |  |  |  |  |  |  | 
Clc1cccc(-c2nnc(Cn3nnc4ccccc43)o2)c1 | 327 µM | 440 µM | 390 µM | > 100 µM |  |  |  |  |  |  |  | 
COc1ccc(-c2nnc(Cn3nnc4ccccc43)o2)cc1 | 269 µM | 477 µM | 376 µM | > 100 µM |  |  |  |  |  |  |  | 
Brc1ccc(-c2nnc(Cn3nnc4ccccc43)o2)cc1 | 305 µM | 438 µM | 387 µM | > 100 µM |  |  |  |  |  |  |  | 

Continued, in another order:

IC50 [2] | IC50 [3] | IC50 [4] | SMILES | CC50 [1] | Activity [5] | Activity [6] | Activity [7] | Activity [8] | Activity [9] | Activity [10] | Activity [11] | Activity [12]
198 µM | 357 µM | 277 µM | Brc1ccc(Cc2nnc(Cn3nnc4ccccc43)o2)cc1 | > 100 µM |  |  |  |  |  |  |  | 
167 µM | 369 µM | 258 µM | c1ccc(Cc2nnc(Cn3nnc4ccccc43)o2)cc1 | > 100 µM |  |  |  |  |  |  |  | 
157 µM | 367 µM | 253 µM | O=[N+]([O-])c1ccc(Cc2nnc(Cn3nnc4ccccc43)o2)cc1 | > 100 µM |  |  |  |  |  |  |  | 
237 µM | 368 µM | 357 µM | Fc1cccc(Cc2nnc(Cn3nnc4ccccc43)o2)c1 | > 100 µM |  |  |  |  |  |  |  | 
150 µM | 357 µM | 251 µM | COc1ccc(Cc2nnc(Cn3nnc4ccccc43)o2)cc1 | > 100 µM |  |  |  |  |  |  |  | 
230 µM | 401 µM | 292 µM | Clc1cccc(Cc2nnc(Cn3nnc4ccccc43)o2)c1 | > 100 µM |  |  |  |  |  |  |  | 
299 µM | 483 µM | 13 µM | O=[N+]([O-])c1ccc(-c2nnc(Cn3nnc4ccccc43)o2)cc1 | > 100 µM |  |  |  |  |  |  |  | 
